Experimental data from patent US20230121325A1, “FAST DISSOLVING PHARMACEUTICAL COMPOSITIONS” (XSPRAY PHARMA AB, priority 2021, published 2023).

Tests used:
[1] = Food effect analysis of Test Formulation (Fasted Study vs Fed Study); assay type: in vivo, human; conditions: Test Formulation single dose, least-squares geometric mean
Method: Objective: The objective of this analysis was to investigate the effect of food on the single-dose PK of Test Formulation using fasted and fed PK data from two studies, referred to as “Fasted Study” and “Fed Study,” respectively below.
Methodology. Since the PK parameters following the oral administration of Test Formulation in fasting and fed conditions were obtained from two different studies (Fasted Study and Fed Study, respectively), the PK data were analyzed using an analysis of variance (ANOVA), which considered the data as if they were collected in a parallel design.
Both studies were fully replicate studies and therefore subjects were dosed with Test Formulation on two occasions. The PK population in this analysis included subjects who received Test Formulation on two occasions; subjects who received Test Formulation only once were not included in this analysis.
In the current analysis, data from the PK population of the Fasted Study and Fed Study were considered “Reference” Treatment and “Test” Treatment, respectively.
For each parameter, the value used for the subject was the geometric mean of the two values that were available for each subject. The use of geometric means is consistent with the assumption that PK parameters are In normally distributed. Subjects with only one period of data were not included in the ANOVA, as this would incorrectly imply that singular data have the same weight as subjects with replicate values for the parameter.
In the Fasted Study, 51 subjects received Test Formulation on at least one occasion under fasting conditions, of whom 44 received Test Formulation on both occasions.
In the Fed Study, 32 subjects received Test Formulation on at least one occasion under fed conditions, of whom 27 received Test Formulation on both occasions.

clinical = conditions: human, in vivo, 90 mg
[2] = within and between patients; cited from earlier work

SMILES: Cc1nc(Nc2ncc(C(=O)Nc3c(C)cccc3Cl)s2)cc(N2CCN(CCO)CC2)n1 [Dasatinib, dasatinib]
- AUC(0-24 h) LSmeans Fed ([1]; fed (n = 27)): 413 ng·h/mL
- AUC(0-t) ([1]; human, plasma, oral, fasting (n = 44), read-out: AUC(0-24 h) LSmeans Fasted): 433 ng·h/mL
- AUC(0-inf) ([1]; human, plasma, oral, fasting (n = 44), read-out: AUC(0-∞) LSmeans Fasted): 446 ng·h/mL
- Cmax ([1]; human, plasma, oral, fasting (n = 44), read-out: Cmax LSmeans Fasted): 127 ng/mL
- AUC(0-inf) ([1]; human, plasma, oral, fed (n = 27), read-out: AUC(0-∞) LSmeans Fed): 431 ng·h/mL
- Cmax ([1]; human, plasma, oral, fed (n = 27), read-out: Cmax LSmeans Fed): 67 ng/mL
- AUC(0-inf) (clinical): 434 ng·h/mL
- Cmax (clinical): 138 ng/mL
- coefficient of variation of AUC [2]: up to 100%
- coefficient of variation of Cmax [2]: up to 100%
